Data taken from patent US4782042A, “Antibiotic A 40926 mannosyl aglycon” (Gruppo Lepetit S.p.A., priority 1985, dated 1988).

Experiments:
[1] = test system: Mycoplasma gallisepticum S6 Weybridge; test: MIC, broth dilution (PPLO broth + 10% horse serum + 1% glucose, 48 h); assay type: cell-based
S. pyogenes C 203 = test: Experimental septicemia in mice, ED50; assay type: in vivo; settings: mice infected intraperitoneally with S. pyogenes C 203; treated subcutaneously about 30 min after infection; survival, calculated on the 10th day (Spearman and Karber)
Method: The antimicrobial activity of the compound of the invention is confirmed also in in vivo experiments conducted essentially as described by R. Pallanza et al., J. Antimicrob. Chemother. 11, 419 (1983). The experimental infection was induced in mice by intraperitoneally administering a suspension of S. pyogenes C 203. Inocula had been adjusted so that the untreated animals died of septicemia within 48 h. Animals were treated subcutaneously with the test compound about 30 min after infection. The ED50 value was calculated on the 10th day by the method of Spearman and Karber (D. J. Finney "Statistical Methods in Biological Assay", Griffin, page 524, 1952) on the basis of the percentage of survival at each dose.

[2] = test system: Clostridium perfringens ISS30543; assay type: cell-based; settings: anaerobic
[3] = test system: Propionibacterium acnes ATCC 6919; test: MIC, agar dilution (Wilkins-Chalgren agar, 48 h, anaerobic); assay type: cell-based
Strep. pneumoniae UC41 = test: MIC, broth dilution (Todd-Hewitt broth, 24 h); assay type: cell-based
[4] = test system: Neisseria gonorrhoeae ISM68/126; test: MIC, broth dilution (GC base broth + 1% Isovitalex, 48 h, CO2-enriched); assay type: cell-based
[5] = test system: Staph. epidermidis ATCC 12228; test: MIC, broth dilution (Isosensitest broth, 24 h); assay type: cell-based
[6] = test system: Haemophilus influenzae type b ATCC 19418; test: MIC, agar dilution (GB base agar + 1% Isovitalex + 0.001% hemin, 24 h); assay type: cell-based
[7] = test system: Clostridium difficile ATCC 9689; test: MIC, agar dilution (Wilkins-Chalgren agar, 48 h, anaerobic); assay type: cell-based
[8] = test system: Bacteroides fragilis ATCC 23745; test: as above; assay type: cell-based
[9] = test system: Strep. faecalis ATCC 7080; test: MIC, broth dilution (Isosensitest broth, 24 h); assay type: cell-based
[10] = test system: Escherichia coli SKF 12140; test: MIC, broth dilution (Isosensitest broth, 24 h); assay type: cell-based
Staph. aureus Tour = test: MIC, broth dilution (Isosensitest broth, 24 h); assay type: cell-based
Strep. pyogenes C203 = test: MIC, broth dilution (Todd-Hewitt broth, 24 h); assay type: cell-based
[11] = test system: Strept. mitis clin. isolate; test: MIC, broth dilution (Todd-Hewitt broth, 24 h); assay type: cell-based

With antibiotic A 40926 mannosyl aglycon the M.I.C. [1] was over 128 µg/mL, the ED50 (S. pyogenes C 203) was 3.8 mg/kg and the M.I.C. [2] was 0.13 µg/mL. The M.I.C. [3] was 1 µg/mL, the M.I.C. (Strep. pneumoniae UC41) was 1 µg/mL and the M.I.C. [4] was 32 µg/mL. It also gave a M.I.C. [5] of 0.5 µg/mL, a M.I.C. [6] of 64 µg/mL and a M.I.C. [7] of 2 µg/mL. For the same substance, the M.I.C. [8] was 64 µg/mL, the M.I.C. [9] was 1 µg/mL and the M.I.C. [10] was over 128 µg/mL. The M.I.C. (Staph. aureus Tour; Staph. aureus Tour (L165), 10^6 cfu/ml) was 1 µg/mL, the M.I.C. (Staph. aureus Tour; Staph. aureus Tour, 30% bovine serum) was 2 µg/mL and the M.I.C. (Staph. aureus Tour; Staph. aureus Tour, inoculum about 10^4-10^5 cfu/ml) was 0.25 µg/mL. The M.I.C. (Strep. pyogenes C203) was 1 µg/mL and the M.I.C. [11] was 1 µg/mL.
